Assays:
[1] = system: AMARE; assay: Pre-emergence herbicidal action against AMARE; type: in vivo, Amaranthus retroflexus
In short: (§1)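 Pre-emergence soil-surface spray of formulated compound (WP or EC; 600 to 800 l/ha; 0.2% wetting agent) over seeds sown in sandy loam. After 3 weeks under greenhouse conditions, damage is estimated visually in percent against untreated plants.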

[2] = system: AVEFA; assay: Pre-emergence herbicidal action against AVEFA; type: in vivo, Avena fatua; settings: 80 g/ha, pre-emergence
In short: as §1

[3] = system: MATIN; assay: Pre-emergence herbicidal action against MATIN; type: in vivo, Matricaria inodora
In short: as §1

[4] = system: VIOTR; assay: Pre-emergence herbicidal action against VIOTR; type: in vivo, Viola tricolor
In short: as §1

[5] = system: PHBPU; assay: Pre-emergence herbicidal action against PHBPU; type: in vivo, Pharbitis purpurea
In short: as §1

[6] = system: PHBPU; assay: Post-emergence herbicidal action against PHBPU; type: in vivo, Pharbitis purpurea
In short: (§2)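 Spray, one-leaf stage: WP or EC compound in water, 600–800 l/ha, 0.2% wetting agent. Plants held about 3 weeks in the greenhouse, then visually rated in percent of kill compared with untreated controls.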

[7] = system: VERPE; assay: Pre-emergence herbicidal action against VERPE; type: in vivo, Veronica persica; settings: dosage 80 g/ha
In short: as §1

[8] = system: SETVI; assay: Post-emergence herbicidal action against SETVI; type: in vivo, Setaria viridis
In short: as §2

[9] = system: SETVI; assay: Pre-emergence herbicidal action against SETVI; type: in vivo, Setaria viridis; settings: dosage 80 g/ha
In short: as §1

[10] = system: ABUTH; assay: Pre-emergence herbicidal action against ABUTH; type: in vivo, Abutilon theophrasti; settings: for Pre-emergence action against ABUTH (herbicidal activity): 80 g/ha, scored visually after 3 weeks vs untreated controls (100% = plants have died, 0% = like control plants); for Pre-emergence action against ABUTH (herbicidal activity in percent): dosage 20 g/ha, scored visually after 3 weeks vs untreated controls, 100% = plants have died, 0% = like control plants
In short: as §1

[11] = system: ABUTH; assay: Post-emergence herbicidal action against ABUTH; type: in vivo, Abutilon theophrasti; settings: visual assessment about 3 weeks after treatment vs untreated controls
In short: as §2

[12] = system: ALOMY; assay: Post-emergence herbicidal action against ALOMY; type: in vivo, Alopecurus myosuroides; settings: dosage 20 g/ha, visual assessment about 3 weeks after treatment vs untreated controls
In short: as §2

[13] = system: AMARE; assay: Post-emergence herbicidal action against AMARE; type: in vivo, Amaranthus retroflexus; settings: 20 g/ha, visual assessment about 3 weeks after treatment, 100% = plants have died, 0% = like control plants
In short: as §2

[14] = system: ECHCG; assay: Pre-emergence herbicidal action against ECHCG; type: in vivo, Echinochloa crus-galli
In short: as §1

[15] = system: AVEFA; assay: Post-emergence herbicidal action against AVEFA; type: in vivo, Avena fatua; settings: 20 g/ha, visual assessment about 3 weeks after treatment, 100% = plants have died, 0% = like control plants
Description: Seeds of monocotyledonous and dicotyledonous weed and crop plants are laid out in sandy loam soil in wood-fiber pots, covered with soil and cultivated in a greenhouse under good growth conditions. 2 to 3 weeks after sowing, the test plants are treated at the one-leaf stage. The compounds of the invention, formulated in the form of wettable powders (WP) or as emulsion concentrates (EC), are then sprayed onto the green parts of the plants in the form of an aqueous suspension or emulsion at a water application rate equivalent to 600 to 800 l/ha, with addition of 0.2% wetting agent. After the test plants have been left to stand in the greenhouse under optimal growth conditions for about 3 weeks, the action of the preparations is assessed visually in comparison to untreated controls (herbicidal action in percent (%): 100% activity=the plants have died, 0% activity=like control plants). […] The tables below illustrate, in an illustrative manner, the post-emergence herbicidal action of the compounds of the invention, the herbicidal activity being stated in percent.

[16] = system: ECHCG; assay: Post-emergence herbicidal action against ECHCG; type: in vivo, Echinochloa crus-galli
In short: as §2

[17] = system: VIOTR; assay: Post-emergence herbicidal action against VIOTR; type: in vivo, Viola tricolor
In short: as §2

[18] = system: ALOMY; assay: Pre-emergence herbicidal action against ALOMY; type: in vivo, Alopecurus myosuroides; settings: for Pre-emergence action against ALOMY (herbicidal activity): 80 g/ha, scored visually after 3 weeks vs untreated controls (100% = plants have died, 0% = like control plants)
In short: as §1

[19] = system: MATIN; assay: Post-emergence herbicidal action against MATIN; type: in vivo, Matricaria inodora
In short: as §2

[20] = system: VERPE; assay: Post-emergence herbicidal action against VERPE; type: in vivo, Veronica persica
In short: as §2

[21] = 20 g/ha, scored visually after 3 weeks vs untreated controls, 100% = plants have died, 0% = like control plants
[22] = 80 g/ha, scored visually after 3 weeks vs untreated controls (100% = plants have died, 0% = like control plants)

Row | SMILES | Pre-emergence action against AMARE in % [1, 21] [%] | Pre-emergence action against AMARE in % [1, 22] [%] | Pre-emergence action against AVEFA in % [2] [%] | Pre-emergence action against MATIN in % ([3]; dosage 20 g/ha) [%] | Pre-emergence action against MATIN in % ([3]; dosage 80 g/ha) [%] | Pre-emergence action against VIOTR in % ([4]; dosage 80 g/ha) [%] | Pre-emergence action against PHBPU in % ([5]; dosage 80 g/ha) [%] | Post-emergence action against PHBPU in % ([6]; dosage 20 g/ha) [%] | Pre-emergence action against VERPE in % [7] [%] | Post-emergence action against SETVI in % ([8]; dosage 5 g/ha) [%] | Pre-emergence action against SETVI in % [9] [%] | Pre-emergence action against ABUTH (herbicidal activity) [10] [%] | Pre-emergence action against ABUTH (herbicidal activity in percent) [10] [%] | Post-emergence action against ABUTH in % ([11]; dosage 20 g/ha) [%] | Post-emergence action at 20 g/ha against AMARE in % [13] [%] | Pre-emergence action against ECHCG in % ([14]; 80 g/ha) [%] | Post-emergence action at 20 g/ha against AVEFA in % [15] [%] | Post-emergence action against ECHCG in % ([16]; dosage 20 g/ha) [%] | Pre-emergence action against ALOMY (herbicidal activity) [18] [%] | Post-emergence action against MATIN in % ([19]; dosage 20 g/ha) [%] | further results
1 | CCn1nnnc1NC(=O)c1ccc(C(F)(F)F)c(C(=O)NCC(F)F)c1SC [Example 2-86] | 100 | 100 | 90 | 100 | 100 | 100 | 90 | 90 | 90 | 100 | 100 | 100 | 100 | 100 | 100 | 100 | 80 | 100 | 90 | 90 | Pre-emergence action against PHBPU in % ([5]; dosage 20 g/ha): 80%; Post-emergence action against PHBPU in % ([6]; dosage 5 g/ha): 80%; Post-emergence action against SETVI in % ([8]; dosage 20 g/ha): 100%; Post-emergence action against ABUTH in % ([11]; dosage 5 g/ha): 80%; Post-emergence action against ALOMY in % [12]: 80%; Pre-emergence action against ECHCG in % ([14]; 20 g/ha): 80%; Post-emergence action against ECHCG in % ([16]; dosage 5 g/ha): 100%; Post-emergence action against VIOTR in % ([17]; 5 g/ha): 100%; Post-emergence action against VIOTR in % ([17]; 20 g/ha): 100%; Post-emergence action against MATIN in % ([19]; dosage 5 g/ha): 80%
2 | CCn1nnnc1NC(=O)c1ccc(C(F)F)c(C(=O)NC2CC2)c1SC [Example 2-89] | 90 | 100 | 90 | 90 | 100 | 100 | – | 80 | 90 | 90 | 100 | 100 | 100 | 90 | 100 | 90 | 80 | 90 | 100 | 90 | Pre-emergence action against VIOTR in % ([4]; dosage 20 g/ha): 90%; Post-emergence action against VERPE in % ([20]; 5 g/ha): 80%; Post-emergence action against VERPE in % ([20]; 20 g/ha): 90%; Post-emergence action against SETVI in % ([8]; dosage 20 g/ha): 100%; Post-emergence action against ABUTH in % ([11]; dosage 5 g/ha): 90%; Post-emergence action against ALOMY in % [12]: 90%; Post-emergence action against VIOTR in % ([17]; 5 g/ha): 90%; Post-emergence action against VIOTR in % ([17]; 20 g/ha): 90%; Post-emergence action against MATIN in % ([19]; dosage 5 g/ha): 90%
3 | CCc1c(C(=O)Nc2nnnn2CC)ccc(C(F)(F)F)c1C(=O)NC(C)C1CC1 (centres unmarked) [Example 2-341] | 100 | 100 | 90 | 100 | 100 | 100 | 80 | 80 | 90 | – | 90 | 100 | 100 | 80 | 100 | 100 | 90 | 90 | 90 | 80 | Pre-emergence action against VIOTR in % ([4]; dosage 20 g/ha): 90%; Post-emergence action against ECHCG in % ([16]; dosage 5 g/ha): 80%; Pre-emergence action against ALOMY ([18]; 20 g/ha, scored visually after 3 weeks, 100% = plants have died, 0% = like control plants): 80%

Source: patent US12655116B2, “Substituted isophthalic acid diamides” (Bayer Aktiengesellschaft, priority 2020, dated 2026)
